In article PMC6383986, “Fragment-Based Covalent Ligand Screening Enables Rapid Discovery of Inhibitors for the RBR E3 Ubiquitin Ligase HOIP” (Journal of the American Chemical Society, 2019):
“Also recorded” adds a separate entry of the source.

Target: T1, HOIP RBR domain (Homo sapiens, UniProt Q96EP0)
T1 construct: made in house; host or cells: E. coli BL21-GOLD(DE3)
T1 sequence (Q96EP0 697-1072): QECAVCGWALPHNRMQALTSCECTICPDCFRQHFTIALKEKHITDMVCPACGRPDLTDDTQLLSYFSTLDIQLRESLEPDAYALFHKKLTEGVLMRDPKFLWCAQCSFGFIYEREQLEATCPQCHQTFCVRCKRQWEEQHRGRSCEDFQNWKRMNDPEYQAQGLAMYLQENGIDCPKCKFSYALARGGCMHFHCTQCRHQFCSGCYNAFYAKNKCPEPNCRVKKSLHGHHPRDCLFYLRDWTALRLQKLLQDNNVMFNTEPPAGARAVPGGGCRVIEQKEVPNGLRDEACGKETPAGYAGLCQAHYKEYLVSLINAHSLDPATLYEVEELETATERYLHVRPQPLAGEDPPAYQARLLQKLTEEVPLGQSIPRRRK
Experiment: Fluorescence-based ubiquitin thioester transfer assay
Format: biochemical
Conditions: HOIP RBR prelabeled with compound; E2 UbcH7
Procedure: overnight, and further purified by size-exclusion chromatography (Superdex 75/ÄKTA purifier).
The appropriate fractions were concentrated to 4 mL in a 3.5 kDa MWCO protein concentrator (Merck). The protein concentration was measured on a Nanodrop UV spectrophotometer (absorbance at 650 nm) as 19 µM and corroborated by SDS PAGE. Labelling was confirmed by protein LC-MS (Supplementary Figure S10). The labelled protein was aliquoted, flash frozen and […]
Supplementary Figure S10. TIC traces of the deconvoluted protein masses of the M1C ubiquitin mutant (M1C Ub) and the AlexaFluor647 labelled M1C ubiquitin mutant (M1C UbA647).
Formation of the HOIP RBR-(5) conjugate
The HOIP RBR domain (7.5 µM) was incubated (Eppendorf Thermomixer) with inhibitor (5) (750 µM, 1.5% DMSO) in 50 mM HEPES, 150 mM NaCl, pH 7.5 buffer at 600 rpm, 23 °C for 18 h. […] The protein concentration was measured on Nanodrop UV spectrophotometer (absorbance at 280 nm), and the protein was flash frozen in liquid nitrogen […]
(10 min), HOIP RBR or HOIP-RBR-(5) conjugate (5 min), C-terminally His6-tagged ubiquitin (10 min). […] The aliquots were analyzed by SDS PAGE and the gels scanned at 700 nm (LICOR Odyssey CLx) using auto-adjustment of the fluorescence intensity, then stained with Coomassie (Figure 4B and Supplementary Figure S11). […]

## COC(=O)/C=C/CNC(=O)c1cc2c([nH]c1=O)CCC2 [Compound 5]
  formation of E3~Ub thioester / loading of ubiquitin onto HOIP RBR: inhibits formation of the E3∼Ub thioester intermediate; also recorded: effectively prevented the loading of ubiquitin onto the E3
